Legend:
AXL = target: T1, AXL (Homo sapiens, UniProt P30530); assay: Assay of AXL inhibitory activity in vitro (Promega AXL Kinase Enzyme System, ADP-Glo); type: biochemical; details: 50 μmol/L ATP, 30° C., 60 minutes
T1 construct: purchased Promega
T1 sequence (P30530 26-894): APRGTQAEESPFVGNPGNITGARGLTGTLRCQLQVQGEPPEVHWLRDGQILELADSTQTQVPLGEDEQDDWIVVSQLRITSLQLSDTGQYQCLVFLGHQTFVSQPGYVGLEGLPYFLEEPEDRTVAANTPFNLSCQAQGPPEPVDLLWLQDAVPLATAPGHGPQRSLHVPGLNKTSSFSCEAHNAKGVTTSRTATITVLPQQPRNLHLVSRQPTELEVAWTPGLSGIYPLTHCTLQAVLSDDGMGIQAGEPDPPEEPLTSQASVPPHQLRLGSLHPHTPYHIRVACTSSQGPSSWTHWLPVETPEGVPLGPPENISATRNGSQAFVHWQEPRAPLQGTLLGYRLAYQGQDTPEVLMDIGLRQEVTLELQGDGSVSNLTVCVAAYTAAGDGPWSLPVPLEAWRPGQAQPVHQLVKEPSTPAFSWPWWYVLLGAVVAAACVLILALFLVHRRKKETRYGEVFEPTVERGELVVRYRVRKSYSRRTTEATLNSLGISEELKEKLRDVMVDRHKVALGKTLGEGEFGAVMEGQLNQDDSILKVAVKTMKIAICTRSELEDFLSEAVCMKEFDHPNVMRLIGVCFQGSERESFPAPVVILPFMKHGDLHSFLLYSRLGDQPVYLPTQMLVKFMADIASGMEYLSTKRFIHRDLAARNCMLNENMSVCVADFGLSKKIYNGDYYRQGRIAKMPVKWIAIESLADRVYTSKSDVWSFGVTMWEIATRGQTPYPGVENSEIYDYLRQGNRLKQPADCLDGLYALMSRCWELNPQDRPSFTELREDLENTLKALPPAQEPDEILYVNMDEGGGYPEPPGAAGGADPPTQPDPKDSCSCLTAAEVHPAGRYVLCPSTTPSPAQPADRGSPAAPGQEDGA
Procedure: AXL Kinase Enzyme System (kinase system) was purchased from Promega. Envision multi-label Analyzer (PerkinElmer).
The enzyme, substrate, ATP and inhibitors were diluted using the buffer solution in the kit.
The assay was carried out in duplicate. 1 μl of the inhibitors of each concentration gradient, 2 μl of the AXL enzyme (6 ng), and a 2 μl mixture of the substrate and ATP (50 μmol/L ATP, 0.2 μg/μL Axltide) were added to the microplate. […] After the reaction was completed, 5 μL of ADP-Glo reagent was added to each well. The system was further reacted at 30° C. for 40 minutes. After the reaction was completed, 10 μL of kinase detection reagent was added to each well and reacted at 30° C. for 30 minutes. The chemiluminescence was then read by the PerkinElmer Envision multi-label analyzer with an integration time of 0.5 seconds.
The original data was converted into an inhibition rate, and the IC50 value can be obtained by four-parameter curve fitting.

[1] = test system: human biphenotypic B bone marrow mononuclear leukemia cell MV4-11 subcutaneous xenograft tumor; assay: Inhibition of MV4-11 subcutaneous xenograft tumor in vivo; parameters: species or system nude mice; details: for % Inhibition rate on day 14 / Average tumor volume Day 14: Oral, Once a day
Procedure: In this assay, the anti-tumor effect of the compounds was evaluated using a nude mice model of subcutaneous xenograft tumor of human biphenotypic B bone marrow mononuclear leukemia cell MV4-11.
Human biphenotypic B bone marrow mononuclear leukemia cell MV4-11 was cultured in vitro in suspension with a RPMI1640 medium supplemented with 10% fetal bovine serum, 100 U/mL penicillin and 100 μg/mL streptomycin in a 5% CO2 cell incubator at 37° C. Routine passaging was performed twice a week. Cells in the logarithmic growth phase were collected, counted and then used for inoculation.
0.2 mL (1×10^7) of MV4-11 cells (plus matrigel, with a volume ratio of 1:1) were inoculated subcutaneously on the right back of each mouse. The grouping and dosing were started when the average tumor volume reached about 140-200 mm^3.
The diameter of the tumor was measured with vernier calipers twice a week. The formula for calculating the tumor volume is: V=0.5a×b^2, where a and b represent the long and short diameters of the tumor, respectively.

[2] = In vivo pharmacokinetic assay in rats; parameters: species or system SD male rats
Procedure: SD male rats aged 7 to 10 weeks were selected. The rats were fasted for at least 12 hours before the administration, and resumed feeding 4 hours after the administration. The rats had free access to water throughout the assay period.
On the day of the assay, the animals in the intravenous group were administrated the corresponding compound through a single injection in the tail vein at an administration volume of 5 mL/kg; the oral group were administrated the corresponding compound through a single intragastric gavage at an administration volume of 10 mL/kg. The animals were weighed before administration, and the administration volume was calculated based on the body weight. The time for collecting samples was: 0.083 (the injection group), 0.25, 0.5, 1, 2, 4, 6, 8, 24 h. About 200 μL of whole blood was collected from the jugular vein at each time point to prepare plasma for concentration determination by high-performance liquid chromatography-tandem mass spectrometry (LC-MS/MS). All animals were euthanized by CO2 anesthesia after collecting the PK samples at the last time point. The plasma concentrations were processed by non-compartmental model of WinNonlin™ Version 6.3 (Pharsight, Mountain View, Calif.) pharmacokinetic software, and the pharmacokinetic parameters were calculated by the linear logarithm trapezoidal method.

[3] = In vivo pharmacokinetic assay in dogs; parameters: species or system Male Beagle dogs; details: 1 mg/kg
Procedure: Male Beagle dogs older than 6 months of age were selected. On the day of the assay, the animals were given the corresponding compound by single injection in the cephalic or saphenous vein in a volume of 1 mL/kg for the intravenous group; and by single gavage in a volume of 5 mL/kg for the oral group. The animals were weighed before administration and the dosing volume of the compound was calculated based on their body weight. About 0.5 mL of whole blood was collected from the cephalic or saphenous vein at each time point to prepare plasma for determination of concentrations by high performance liquid chromatography-tandem mass spectrometry (LC-MS/MS). Plasma concentrations were processed using non-compartment model of WinNonlin™ Version 6.3 or above (Pharsight, Mountain View, Calif.) pharmacokinetic software, and pharmacokinetic parameters were calculated using the linear log trapezoidal method.

CCc1nc(C(N)=O)c(Nc2ccc(N3CCC4(CCN(C)CC4)CC3)c(C)c2)nc1NC1CCOCC1.O=C(O)C(F)(F)F
IC50 (AXL): 1.22 nM
% Inhibition rate on day 14 ([1]; 1 mg/kg): 66.1%
Average tumor volume Day 14 ([1]; 1 mg/kg): 375 mm^3
% Inhibition rate on day 14 ([1]; 1.5 mg/kg): 81.0%
Average tumor volume Day 14 ([1]; 1.5 mg/kg): 273 mm^3
% Inhibition rate on day 14 ([1]; 4.5 mg/kg): 114.7%
Average tumor volume Day 14 ([1]; 4.5 mg/kg): 51 mm^3
Average tumor volume Day 0 ([1]; Day 0, one value for all groups, before dosing): 149 mm^3
AUC0-last ([2]; Injection, 1 mg/kg): 457 nm·h
Cl ([2]; Injection, 1 mg/kg): 61.2 mL/min/kg
T1/2 ([2]; Injection, 1 mg/kg): 2.99 h
Vdss ([2]; Injection, 1 mg/kg): 13.3 L/kg
Cmax ([2]; Oral, 2.5 mg/kg): 40.6 nM
F% ([2]; Oral, 2.5 mg/kg): 44.7%
Tmax ([2]; Oral, 2.5 mg/kg): 8.00 h
AUC0-last ([3]; Injection): 765 nm·h
Cl ([3]; Injection): 34.2 mL/min/kg
T1/2 ([3]; Injection): 9.83 h
Vdss ([3]; Injection): 28.9 L/kg
Cmax ([3]; Oral): 21.1 nM
F% ([3]; Oral): 41.6%
Tmax ([3]; Oral): 4.00 h

Reference: patent publication US20230141887A1, “CRYSTAL FORM OF DIAZASPIROPYRAN COMPOUND” (MEDSHINE DISCOVERY INC., priority 2020, published 2023)
